Data: patent publication US6573276B2, “Muscarinic M1 agonist as an inhibitor of beta-amyloid (Aβ40 and Aβ42)-synthesis” (Boehringer Ingelheim Pharma KG, priority 2001, dated 2003)

How the values were obtained:
Aβ formation = settings: cell culture and brain slice models; background statement; cited from earlier work
Aβ42 = experiment: CSF levels of Aβ42 (sandwich ELISA) before and after 4 weeks of treatment, clinical phase II trial; format: in vivo, human
Experimental: (§1) To test whether this effect also occurs in humans, talsaclidine or placebo were administered to 40 patients with clinical diagnosis of probable senile dementia of Alzheimer-type and measured cerebrospinal fluid (CSF) levels of Aβ40 and Aβ42 before and at the end of 4 weeks of treatment. To control for specificity, CSF levels of both total tau and phosphorylated tau were also measured.
(§2) Diagnosis of probable Alzheimer's disease was made according to the National Institute of Neurological and Communicative Disorders and Stroke-Alzheimer's Disease and Related Disorders Association (NINCDS-ADRDA) as well as ICD10 criteria. All patients were community-dwelling and were referred to the participating dementia clinics from general practitioners, neurologists, and psychiatrists. All patients gave their informed consent and were screened for participation in a clinical phase II trial in accordance with GCP and ICH guidelines. The clinical phase II trial was designed to test the safety and tolerability of talsaclidine. CSF measurements were performed within a scientific add-on protocol and additional separate informed consent to the multicenter clinical trial.
Patients were carefully examined and received a thorough clinical work-up. Psychometric testing included the Mini Mental State Examination (MMSE) as a global screening instrument for dementia, the Alzheimer's Disease Assessment Scale, cognitive part (ADAScog), the Clinical Global Impression (CGI) and the Behavioral Pathology in AD (BEHAVE-AD). There were 40 participants in the study with two CSF samples each. Among the inclusion criteria were age below 85 years, MMSE between 12 and 28, and the absence of relevant systemic disorders.
Talsaclidine was given, in a randomized, double-blind design, three times per day (t.i.d) in a constant dosage with increasing dose panels. Both capsules or tablets of different dose strength were applied. The specific formulations used are outlined in detail below.
The aforementioned pharmaceutical compositions were administered twice daily or three times per day to the patients. The following dosings were applied: 4.5 mg talsaclidine (n=5 patients); 9 mg (n=4); 18 mg (n=4); 36 mg (n=4); 72 mg (n=4); 96 mg (n=4); 108 mg (n=4); 120 mg (n=2); 144 mg (n=3); and placebo (n=6).
Within one week of dementia testing and before treatment, CFS was obtained by lumbar puncture according to conventional techniques. CFS samples were frozen on dry ice immediately upon withdrawal at the bedside in 0.5 ml aliquots and stored at −85° C. until biochemical analyses. A second lumbar puncture was done after four weeks of treatment and the CFS obtained was processed identically to the initial lumbar puncture. All available CFS samples were included in the analyses.
Sandwich ELISA was performed by using precoated plates (INNOTEST β-Amyloid 1-42, 8-well strips; Innogenetics, Belgium) with the capture antibody 21F12 (Innogenetics, Belgium). The capture 21F12 is specific for the free carboxyl terminus of Aβ42 (peptide sequence Aβ33-42). After washing (5×, room temperature), biotinylated antibody 6E10 at […] concentration in blocking buffer (50 mM Tris-HCl pH 7.5; 140 mM NaCl; 5 mM EDTA; 0.05% NP40; 0.25% gelatine; 1% BSA) was added. Each assay plate included a standard curve with highly purified Aβ42. After color development with TMP and Vectastain ABC detection (streptavidin-peroxidase complex, Vectastain Elite ABC Kit), absorbance was read at 450 nm. The linear range of the assay was 30 pg/ml to 5 ng/ml. There was no cross reactivity in either assay with Aβ42 or Aβ40.
Statistical analyses of data were done by Wilcoxon signed-rank tests for paired samples as well as by the Mann-Whitney U test for group comparisons. Bonferroni correction for multiple testing was performed. Analyses of covariates were used to test whether changes correlated with age, gender, or dementia severity.

tau protein = experiment: CSF levels of tau (sandwich ELISA) before and after 4 weeks of treatment, clinical phase II trial; format: in vivo, human; settings: patients
Experimental: as §1, §2
Patients were carefully examined and received a thorough clinical work-up. […]
The monoclonal antibody AT120 that reacts with both normal and HPF-tau was used in a sensitive sandwich ELISA (Innogenetics, Belgium). […] Absorbance was read at 450 nm. […]

Aβ40 = experiment: CSF levels of Aβ40 (sandwich ELISA) before and after 4 weeks of treatment, clinical phase II trial; format: in vivo, human
Experimental: as §1
as §2, with “CSF measurements were performed within a scientific add-on protocol and additional separate informed consent to the multicenter clinical trial.” left out
Sandwich ELISA was performed with the capture antibody 6E10 (Senetek, Maryland Heights, Mo.). […] After color development with 3,5,3′,5′-tetramethylbenzidine (TMB) and hydrogen peroxide, absorbance was read at 450 nm on a microplate reader (Victor2 Multilabel, EG&G® Wallac). […]

[1] = dosings 4.5 to 144 mg talsaclidine, four weeks
[2] = patients treated with talsaclidine, four weeks

C#CCOC1CN2CCC1CC2 (stereo not drawn) [talsaclidine]
Aβ formation (Aβ formation): lowers Aβ formation | dose dependence of the decrease of CSF levels of Aβ42 (Aβ42; [1]): not dose dependently | patients in whom CSF levels of Aβ42 decreased (Aβ42; [2]): 65% | patients in whom CSF levels of Aβ42 did not change (Aβ42; [2]): 15% | patients in whom CSF levels of Aβ42 increased (Aβ42; [2]): 20% | mean CSF levels of Aβ42 (mean±SD) (Aβ42; patients with probable Alzheimer's disease, talsaclidine group n=34, starting value ('decreased from'), value after four weeks not given): 0.126 ± 0.073 ng/mL | decrease of CSF levels of Aβ42 over time within the treatment group, median (Aβ42; patients, four weeks of treatment, n=34, significant): 17% | decrease of CSF levels of Aβ42 compared to placebo, median (Aβ42; patients, four weeks of treatment, talsaclidine n=34 vs placebo n=6, significant): 23% | dose dependence of change of CSF tau (tau protein; n=34, dosings 4.5 to 144 mg talsaclidine, four weeks): decreased dose dependently | CSF tau in total in comparison to placebo (tau protein; n=34, four weeks of treatment): did not decrease in total in comparison to placebo | dose dependence of change of CSF levels of Aβ40 (Aβ40; [1]): decreased dose dependently | CSF levels of Aβ40 in total in comparison to placebo (Aβ40; patients, four weeks of treatment): did not increase in total in comparison to placebo
